Here are results for three molecules from patent publication US12448369B2 (Edgewise Therapeutics, Inc., priority 2023, dated 2025).

The subject of assay [1] is Porcine atria myofibrils (atrial myosin ATPase). The assay can be described thus: Myofibril ATPase assay, porcine atria myofibrils. The class given is biochemical. To be noted: porcine atria myofibrils. Summed up: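 Atrial myofibril ATPase measured by NADH-coupled absorbance at 340 nm; vehicle-normalized slopes fitted to give Y75 or Y125 values.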
Assay [2] relates to Rabbit Psoas myofibrils (skeletal myosin ATPase). Kind of assay: Myofibril ATPase assay, rabbit psoas (skeletal) myofibrils. Type of assay: biochemical. To be noted: rabbit psoas myofibrils. An outline of the steps: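 Values derive from concentration–response fits of NADH consumption rates at 340 nm, normalized to vehicle-only wells, as Y75 or Y125. Myofibril ATP turnover was linked to NADH via PK/LDH in Ca/EGTA-buffered PIPES, pH 7.0, and read over 75 min.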

The target of assay [3] is T1, Porcine ventricle myofibrils (ventricular myosin ATPase) (Sus scrofa, UniProt P79293).
T1 construct: Myofibrils from porcine cardiac muscle was isolated from the left ventricle of Yucatan minipigs; tissue Exemplar Genetics; host or cells: left ventricle of Yucatan minipigs, myofibrils prepared in house
The assay can be described thus: Myofibril ATPase assay, porcine ventricle myofibrils. Type of assay: biochemical, porcine (Yucatan minipigs). To be noted: porcine ventricle myofibrils. An outline of the steps: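 In a coupled enzyme format, ADP from myofibril ATPase drives NADH oxidation, monitored kinetically at 340 nm for 75 min using minipig ventricle myofibrils. Effective concentrations giving 25% loss or gain of activity relative to vehicle were calculated from 4-parameter fits.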

A further assay deals with SD rats. Kind of assay: Echocardiography of systolic cardiac performance (HR, FS, LV volumes, SWT) after a single oral dose. Type of assay: in vivo. To be noted: Rattus norvegicus, single dose 10 mg/kg PO, ~2 hrs post-dosing, isoflurane-anesthetized. Here is the method:
Example 2. Echocardiogram Data
Experiments were performed to evaluate the in vivo ability of the compounds of the disclosure to modulate systolic cardiac performance. Non-invasively echocardiography was used to assess cardiac indicators in isoflurane-anesthetized SD rats. A set of conscious rats were treated with either vehicle control (0 mg/kg PO; n=78) or a single dose of a test compound (10 mg/kg PO, n=2 to 6/compound) via oral gavage. Cardiac function/geometry were recorded at two separate time-points/days: once prior to dosing (e.g., at baseline, day −2) and at ˜2 hrs post-dosing (day 0). In these experiments, heart rate (HR), echocardiography-derived indices of left-ventricular systolic performance, as well as dimensions/volumes were measured using a high-frequency transducer and parasternal long-axis transthoracic views (Vevo3100, VisualSonic). LV fractional shortening (FS), an index of systolic function, was defined as the end-diastole normalized change in internal dimensions divided by the difference in diameter (LVid) of the left ventricle between end-systole (LVids) and end-diastole (LVidd) (e.g., FS=100·[LVidd−LVids]/LVidd). LV volumes were derived using the Teichholz formula (LVV=[7·LVid^3]/[2.4+LVid]). In addition, a systolic wall-thickening index (SWT) was also evaluated. SWT is defined as the relative ratio (end-diastole normalized) of left-ventricular (anterior and posterior) wall-thickness change during systole; e.g., SWT={[(anterior LV wall thickness in systole−anterior LV wall thickness in diastole)]+[(posterior LV wall thickness in systole−posterior LV wall thickness in diastole)]}/{2*diastolic thickness}. In all cases, blood samples were taken (via either tail-vein micro-sampling or cardiac-puncture) at the time of each echocardiographic examination in order to establish pharmacokinetic (PK)/pharmacodynamics (PD) relationships.

Where [4] appears, read: EDV change vs vehicle, read-out: EDV % vs. VEH.
The mark [5] stands for this setting: LV fractional shortening change vs vehicle, read-out: FS % vs. VEH.
Where [6] appears, read: SWT change vs vehicle, read-out: SWT % vs. VEH.
Setting [7] is: heart rate change vs vehicle, read-out: HR % vs. VEH.

Each structure is given as a SMILES string. Like-named read-outs stand apart in the source and are kept apart here.

T1 sequence (P79293 whole entry): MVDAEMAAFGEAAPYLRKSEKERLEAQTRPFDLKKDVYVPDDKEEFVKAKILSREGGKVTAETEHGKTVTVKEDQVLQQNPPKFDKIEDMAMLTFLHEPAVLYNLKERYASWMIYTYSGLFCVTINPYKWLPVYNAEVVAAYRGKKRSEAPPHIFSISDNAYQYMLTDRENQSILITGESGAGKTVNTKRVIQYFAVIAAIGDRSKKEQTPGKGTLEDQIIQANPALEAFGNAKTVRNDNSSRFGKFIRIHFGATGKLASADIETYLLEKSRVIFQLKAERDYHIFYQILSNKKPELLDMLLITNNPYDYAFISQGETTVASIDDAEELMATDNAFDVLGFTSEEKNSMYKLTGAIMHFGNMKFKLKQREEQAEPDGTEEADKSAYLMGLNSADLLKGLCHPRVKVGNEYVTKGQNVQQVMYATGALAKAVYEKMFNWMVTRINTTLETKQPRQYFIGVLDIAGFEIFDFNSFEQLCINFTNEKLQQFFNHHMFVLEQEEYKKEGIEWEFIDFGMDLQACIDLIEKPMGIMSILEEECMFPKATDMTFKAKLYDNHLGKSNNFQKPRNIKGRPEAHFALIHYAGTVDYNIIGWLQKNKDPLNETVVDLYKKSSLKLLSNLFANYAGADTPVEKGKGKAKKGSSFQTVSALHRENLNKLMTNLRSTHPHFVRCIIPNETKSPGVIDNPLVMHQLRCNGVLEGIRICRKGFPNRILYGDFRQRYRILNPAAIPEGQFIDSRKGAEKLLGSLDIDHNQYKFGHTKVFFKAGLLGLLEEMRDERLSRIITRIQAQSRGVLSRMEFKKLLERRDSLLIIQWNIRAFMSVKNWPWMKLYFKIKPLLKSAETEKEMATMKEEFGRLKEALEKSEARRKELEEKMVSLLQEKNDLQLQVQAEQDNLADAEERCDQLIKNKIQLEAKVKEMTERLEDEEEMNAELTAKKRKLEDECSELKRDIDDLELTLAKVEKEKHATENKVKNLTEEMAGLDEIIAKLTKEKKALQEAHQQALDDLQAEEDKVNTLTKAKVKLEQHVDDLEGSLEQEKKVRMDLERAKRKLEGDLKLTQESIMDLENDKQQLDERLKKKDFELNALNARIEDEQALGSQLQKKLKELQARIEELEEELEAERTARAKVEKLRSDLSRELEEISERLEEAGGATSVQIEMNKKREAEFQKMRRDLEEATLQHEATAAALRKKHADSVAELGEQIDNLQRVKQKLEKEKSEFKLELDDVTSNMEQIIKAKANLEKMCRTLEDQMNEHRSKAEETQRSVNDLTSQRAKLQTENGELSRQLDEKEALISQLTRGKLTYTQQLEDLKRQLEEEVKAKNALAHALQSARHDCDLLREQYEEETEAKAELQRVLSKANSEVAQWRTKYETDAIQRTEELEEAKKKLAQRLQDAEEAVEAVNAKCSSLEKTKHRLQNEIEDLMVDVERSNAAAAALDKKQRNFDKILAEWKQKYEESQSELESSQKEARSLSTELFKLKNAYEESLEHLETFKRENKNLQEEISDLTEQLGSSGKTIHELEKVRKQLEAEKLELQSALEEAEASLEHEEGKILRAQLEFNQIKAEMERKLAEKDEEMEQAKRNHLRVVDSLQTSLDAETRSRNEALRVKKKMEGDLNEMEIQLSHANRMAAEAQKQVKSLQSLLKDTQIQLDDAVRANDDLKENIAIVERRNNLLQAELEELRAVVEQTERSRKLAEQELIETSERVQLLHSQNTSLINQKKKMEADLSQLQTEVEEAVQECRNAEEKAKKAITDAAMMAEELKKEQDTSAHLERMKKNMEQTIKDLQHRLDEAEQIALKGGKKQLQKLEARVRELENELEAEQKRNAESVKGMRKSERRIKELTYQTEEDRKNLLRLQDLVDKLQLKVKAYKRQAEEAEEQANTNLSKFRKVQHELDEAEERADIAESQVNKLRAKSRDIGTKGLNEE

For `C[C@@H](NC(=O)Cc1cc2c(F)c(F)ccc2[nH]c1=O)c1ncc(C#N)cn1` (single isomer, unassigned) [compound 2071], the “Atrial EC25” value in assay [1] (Y75 value (no ‡ mark)) was 1070 nM. For the same molecule, the “Skeletal EC25” value in assay [2] (Y75 value (no ‡ mark)) is 2930 nM. Further, the “Ventricular EC25” value in assay [3] (Y75 value (no ‡ mark)) was 2620 nM. The change in vivo at 10 mg/kg with SD rats (setting [4]) fell in the range of 1 to 20%; in the assay with SD rats (setting [5]) it was 1 to 20%; in the assay with SD rats (setting [6]), 11 to 20%; with SD rats (setting [7]), 1 to 20%.

As for `Cc1nccc2[nH]c(=O)c(CC(=O)N[C@@H](C)c3ccc(C#N)cc3F)c(C)c12` (single isomer, unassigned) [compound 256], the “Atrial EC25” value in assay [1] (Y75 value (75% activity relative to no compound)) worked out at 80 nM. In assay [2] (Y75 value), the “Skeletal EC25” value is 20 nM. Further, the “Ventricular EC25” value in assay [3] (Y75 value) turned out to be 190 nM. Moreover, the change in vivo at 10 mg/kg in the assay with SD rats (setting [4]) was in the range of 1 to 20%; in the assay on SD rats (setting [5]) it was 1 to 20%; with SD rats (setting [6]) it was 1 to 20%; with SD rats (setting [7]), 1 to 10%.

In the case of `Cc1c(CC(=O)N[C@@H](C)c2cnc(C#N)cn2)c(=O)[nH]c2ccc(F)c(F)c12` [compound 1146, (S)—N-(1-(5-cyanopyrazin-2-yl)ethyl)-2-(5,6-difluoro-4-methyl-2-oxo-1,2-dihydroquinolin-3-yl)acetamide], the “Atrial EC25” value in assay [1] (Y75 value (no ‡ mark)) worked out at 140 nM. Further, in assay [2] (Y75 value (no ‡ mark)), the “Skeletal EC25” value turned out to be 210 nM. Moreover, the “Ventricular EC25” value in assay [3] (Y75 value (no ‡ mark)) is 190 nM. In addition, the change in vivo at 10 mg/kg with SD rats (setting [4]) fell in the range of 1 to 20%; with SD rats (setting [5]), 21 to 40%; in the assay with SD rats (setting [6]), 21 to 40%; with SD rats (setting [7]), 1 to 10%.
